Measurements: patent US5679521A, “Steroid 5A-reductases” (priority 1995, dated 1997)
Where a chain is given by its changes, count along the chain named. Where “and” joins values, the source holds several entries; their conditions need not be identical. Equal entries are not always repeated.

Columns and labels:
rat steroid 5α-reductase [1] = target: T1, rat steroid 5α-reductase (Rattus norvegicus, UniProt P24008); assay: steroid 5α-reductase activity/inhibition in vitro, homogenates of COS cells expressing rat cDNA (Table III); conditions: apparent Ki, rat enzyme; two [14C]testosterone concentrations; Dixon plots
T1 sequence (P24008 5-259): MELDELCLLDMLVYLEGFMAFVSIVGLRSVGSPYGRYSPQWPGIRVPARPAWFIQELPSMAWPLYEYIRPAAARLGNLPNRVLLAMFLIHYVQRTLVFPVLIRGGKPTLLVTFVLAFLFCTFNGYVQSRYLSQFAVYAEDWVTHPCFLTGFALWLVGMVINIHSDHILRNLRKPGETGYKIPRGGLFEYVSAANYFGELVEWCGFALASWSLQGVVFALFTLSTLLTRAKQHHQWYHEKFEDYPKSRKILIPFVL
Excerpt: (§1) Expression Vector Construction. A rat steroid 5α-reductase cDNA corresponding to nucleotides 1-1962 (see Example 1) was ligated into the pCMV4 expression vector (Andersson et al., 1989b). A human cDNA corresponding to nucleotides 1 to 842 of FIG. 7 was initially ligated into pCMV4. […] After amplification, the product was ligated into pCMV4.
(§2) Expression of Steroid 5α-Reductase 1 cDNAs in COS Cells. Simian COS-M6 cells were transfected as described by Andersson et al. (1989b). The assay of steroid 5α-reductase activity in intact cells was carried out as described in Example 1 except that [^14 C]-labeled steroid dissolved in ethanol were added to the transfected cell medium and subsequent organic extractions were carried out with dichloromethane. TLC and liquid scintillation counting were performed as described in Example 1.
(§3) To assay steroid 5α-reductase activity in vitro, cells were harvested 48 hours after transfection, washed once with phosphate buffered saline and either frozen in liquid N2 or homogenized directly with a Polytron in 10 mM potassium phosphate (pH 7.4), 150 mM KCl and 1 mM EDTA, at a protein concentration of 2 mg/ml. A typical assay contained 10 to 50 μg of cell homogenate protein in 0.5 ml of 0.1M potassium phosphate buffer (pH 6.6, rat enzyme; pH 7.0, human enzyme). Steroids were added in 5 μl ethanol, and the reaction was initiated by the addition of NADPH to a final concentration of 2-5 mM. Incubations were carried out for 10 min at 37° C. and terminated by the addition of 5 ml dichloromethane. Organic execrations and thin-layer chromatography analysis were as described above.
(§4) The apparent Km and Vmax values in this system were determined in vitro with five different steroid substrates (Table III).
(§5) The apparent Ki values were then determined for 4-aza-steroid (4-MA and MK-906) inhibition of 5α-reductases expressed in COS cells. […] The data obtained were analyzed using Dixon plots to determine the type of inhibition and the apparent Ki value (Dixon et al., 1979).
(§6) COS call transfaction, cell homogonate preparation, and enzyme assay were
(§7) carried out as described in Materials and Methods. Each Km value
(§8) represents the average of at least two experiments carried out on
(§9) different days using cell lysates prepared from different transfections.

[2] = target: T2, human prostate 5α-reductase (prostate extract) (Homo sapiens, UniProt P31213); assay: finasteride inhibition of 5α-reductase in human prostate extract; format: biochemical
T2 construct: Prostate tissue was obtained from subjects undergoing surgical treatment for benign prostatic hyperplasia; from tissue; host or cells: human prostate (benign prostatic hyperplasia), membrane extract
T2 sequence (P31213 1-254): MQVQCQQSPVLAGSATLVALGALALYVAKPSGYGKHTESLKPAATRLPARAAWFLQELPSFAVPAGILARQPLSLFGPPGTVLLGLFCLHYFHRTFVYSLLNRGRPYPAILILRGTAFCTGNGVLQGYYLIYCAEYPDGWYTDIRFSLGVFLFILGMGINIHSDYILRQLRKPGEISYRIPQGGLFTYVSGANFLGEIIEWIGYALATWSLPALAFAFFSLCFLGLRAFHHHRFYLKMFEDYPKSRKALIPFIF

[3] = system: major human prostate 5α-reductase enzyme; conditions: Liang et al., 1985; cited from earlier work
rat steroid 5α-reductase [4] = target: T1, rat steroid 5α-reductase; assay: steroid 5α-reductase assay in intact transfected COS cells, rat cDNA; format: cell-based; parameters: the open reading frame would encode a hydrophobic protein of 255 amino acids; expressed in transfected cells; host or cells: simian COS-M6 cells, pCMV4 vector; conditions: rat enzyme expressed in COS cells; 37° C., 2 hr
Excerpt: as §1, §2
COS cells were transiently transfected with expression vectors harboring the rat or human steroid 5α-reductase 1 cDNAs, or with the pCMV4 vector alone.
IC50 values for MK-906 and 4-MA inhibition of 5α-reductases expressed in COS cells were also determined. […] See Example 6 and FIG. 15, for further analysis of 4-aza-steroid inhibition.

[5] = target: T3, human steroid 5α-reductase 1 (Homo sapiens, UniProt P18405); assay: steroid 5α-reductase activity/inhibition in vitro, homogenates of COS cells expressing human steroid 5α-reductase 1 cDNA (Table III); conditions: apparent Ki, human enzyme; two [14C]testosterone concentrations; Dixon plots
T3 sequence (P18405 1-259): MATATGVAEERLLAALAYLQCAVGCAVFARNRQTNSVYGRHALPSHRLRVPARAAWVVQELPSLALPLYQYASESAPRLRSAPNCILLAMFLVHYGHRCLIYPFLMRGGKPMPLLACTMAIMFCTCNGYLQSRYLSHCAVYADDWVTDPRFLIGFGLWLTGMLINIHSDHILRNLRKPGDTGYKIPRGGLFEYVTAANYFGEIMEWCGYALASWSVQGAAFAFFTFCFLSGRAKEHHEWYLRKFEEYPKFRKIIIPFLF
Excerpt: as §1, §2, §3, §4, §5, §6, §7, §8, §9

rat steroid 5α-reductase [6] = target: T1, rat steroid 5α-reductase; parameters: the open reading frame would encode a hydrophobic protein of 255 amino acids; expressed in transfected cells; host or cells: simian COS-M6 cells, pCMV4 vector; conditions: simian COS cells; Andersson & Russell, 1990; cited from earlier work
steroid 5α-reductase = conditions: Liang et al., 1985; cited from earlier work
human 5α-reductase 2 [7] = target: T4, human 5α-reductase 2 (Homo sapiens, UniProt P31213); assay: finasteride inhibition of 5α-reductase 2 expressed in human embryonic kidney 293 cells (FIG. 15B); format: biochemical
T4 construct: predicted to be a hydrophobic polypeptide of 254 amino acids; expressed in transfected cells; host or cells: human embryonic kidney 293 cells, pCMV expression vector
T4 sequence (P31213 1-254 L89V): T2 sequence (P31213 1-254) with L89V
Procedure: (§10) FIGS. 15A-15B. Characterization of expressed human 5α-reductase isozymes with regard to pH optima and finasteride inhibition. Expression plasmids containing the 5α-reductase 1 or 2 cDNAs (FIGS. 7 and 13, respectively) were transfected into human embryonic kidney 293 cells. […] Reductase enzyme activity obtained in extracts of transfected human embryonic kidney 293 cells in the absence of inhibitor was defined as 100%. In both panels, conversion into dihydrotestosterone was determined, after 10 minute incubations, by thin layer chromatography. Protein concentrations in cell extracts were measured as in Lowry, 1951.
(§11) Steroid 5α-Reductase Assay. […] Termination, organic extraction and TLC were performed as described in Example 1, using a chloroform-ethyl acetate (3:1, v/v) mobile phase in the TLC.
(§12) The properties of the two human steroid 5α-reductase isozymes were also compared directly, following expression in human embryonic kidney 293 cells.

human 5α-reductase 2 [8] = target: T5, human 5α-reductase 2 (Homo sapiens, UniProt P31213, L89V); assay: as above; format: biochemical; conditions: 5α-reductase 2, 293 cells
T5 construct: predicted to be a hydrophobic polypeptide of 254 amino acids; expressed in transfected cells; host or cells: human embryonic kidney 293 cells, pCMV expression vector
T5 sequence (P31213 1-254 L89V): T2 sequence (P31213 1-254) with L89V
Procedure: as §10, §11, §12

human 5α-reductase 1 = target: T6, human 5α-reductase 1 (Homo sapiens, UniProt P18405); assay: finasteride inhibition of 5α-reductase 1 expressed in human embryonic kidney 293 cells (FIG. 15B); format: biochemical
T6 construct: Human 5α-reductase 1 is 259 residues long; expressed in transfected cells; host or cells: human embryonic kidney 293 cells
T6 sequence (P18405 1-259): T3 sequence (P18405 1-259)
Procedure: as §10, §11, §12

[9] = target: T3, human steroid 5α-reductase 1; assay: finasteride inhibition of steroid 5α-reductase 1 expressed in COS cells (Example 6); format: biochemical; parameters: Human 5α-reductase 1 is 259 residues long; expressed in transfected cells; host or cells: simian COS-M6 cells, pCMV4 vector
[10] = system: prostate extract and steroid 5α-reductase 1; assay: finasteride inhibition of mixed aliquots of prostate extract and steroid 5α-reductase 1 extract; format: biochemical, human; conditions: aliquots with equivalent 5α-reductase activity mixed

Ki (rat steroid 5α-reductase [1]): 0.003 to 0.005 µM and 0.003 µM and 0.004 µM and 0.005 µM
IC50 [2]: 0.01 µM
IC50 inhibition, relative potency of MK-906 and 4-MA (rat steroid 5α-reductase [4]): equipotent
Ki [5]: 0.34 to 0.62 µM and 0.34 µM and 0.38 µM and 0.62 µM
IC50 (human 5α-reductase 2 [7]): ~0.03 µM
Ki (human 5α-reductase 2 [8]): ~0.005 µM
IC50 (human 5α-reductase 1): ~0.9 µM
Ki (human 5α-reductase 1; 5α-reductase 1, 293 cells): ~0.23 µM
IC50 [9]: 10 µM
inhibition curve of mixed extracts [10]: biphasic
SMILES: CC(C)(C)NC(=O)[C@H]1CC[C@H]2[C@@H]3CC[C@H]4NC(=O)C=C[C@]4(C)[C@H]3CC[C@]12C [MK-906, 17β-N-t-butylcarbamoyl-4-aza-5α-androst-1-en-3-one]
type of inhibition [3]: competitive inhibitor
inhibition of rat steroid 5α-reductase (rat steroid 5α-reductase [6]): inhibited
type of inhibition (steroid 5α-reductase): competitive inhibitors
